#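 Each compound was tested at five concentrations against cells in 96-well plates for 48 hours. Here, GI50 denotes the concentration required for 50% inhibition of growth.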 Activity calls are given as the source filed them. Cut-off read from the data, not from the text of the source: active = GI50 up to about 1.1 µM and inactive = higher.
# Columns and labels:
# Assay in all cases: growth of human tumour cells (NCI), 48 h
# K562 = test system: K562
# HCT-116 = test system: HCT-116
# SNB-75 = test system: SNB-75
# UO-31 = test system: UO-31
# SF-295 = test system: SF-295
# SN12C = test system: SN12C
# MDA-MB-231 = test system: MDA-MB-231
# KM12 = test system: KM12
# HCT-15 = test system: HCT-15
# U-251 = test system: U-251
# LOX IMVI = test system: LOX IMVI
# SK-MEL-28 = test system: SK-MEL-28
# 786-0 = test system: 786-0
# M14 = test system: M14
# SK-MEL-5 = test system: SK-MEL-5
# SF-268 = test system: SF-268
# EKVX = test system: EKVX
# HT-29 = test system: HT-29
# A549 = test system: A549
# DU-145 = test system: DU-145
# BT-549 = test system: BT-549
# UACC-62 = test system: UACC-62
# MOLT-4 = test system: MOLT-4
# OVCAR-3 = test system: OVCAR-3
# SW-620 = test system: SW-620
# SNB-19 = test system: SNB-19
# RXF 393 = test system: RXF 393
# CAKI-1 = test system: CAKI-1
# TK-10 = test system: TK-10
# Hs-578T = test system: Hs-578T
# NCI-H522 = test system: NCI-H522
# NCI-H23 = test system: NCI-H23
# T47D = test system: T47D
# Malme-3M = test system: Malme-3M
# OVCAR-5 = test system: OVCAR-5
# NCI-H226 = test system: NCI-H226
# ACHN = test system: ACHN
# SK-MEL-2 = test system: SK-MEL-2
# HOP-92 = test system: HOP-92
# UACC-257 = test system: UACC-257
# NCI-H460 = test system: NCI-H460
# NCI/ADR-RES = test system: NCI/ADR-RES
# COLO 205 = test system: COLO 205
# MDA-MB-435 = test system: MDA-MB-435
# MCF7 = test system: MCF7
# OVCAR-8 = test system: OVCAR-8
# PC-3 = test system: PC-3
# HOP-62 = test system: HOP-62
# SK-OV-3 = test system: SK-OV-3
# OVCAR-4 = test system: OVCAR-4
# IGROV-1 = test system: IGROV-1
# HL-60 = test system: HL-60
# SF-539 = test system: SF-539
# HCC 2998 = test system: HCC 2998
# SR = test system: SR
# CCRF-CEM = test system: CCRF-CEM
smiles,measurement,setting,value
[N-]=[N+]=Nc1ccc(NCCCCCC(=O)ON2C(=O)CCC2=O)c([N+](=O)[O-])c1,GI50,K562,22.4 µM (inactive)
same,GI50,HCT-116,39.6 µM (inactive)
same,GI50,SNB-75,72.9 µM (inactive)
same,GI50,UO-31,46.3 µM (inactive)
same,GI50,SF-295,> 100 µM (inactive)
same,GI50,SN12C,27.4 µM (inactive)
same,GI50,MDA-MB-231,77.1 µM (inactive)
same,GI50,KM12,46.2 µM (inactive)
same,GI50,HCT-15,> 100 µM
same,GI50,U-251,> 100 µM (inactive)
same,GI50,LOX IMVI,48.8 µM (inactive)
same,GI50,SK-MEL-28,74.1 µM (inactive)
same,GI50,786-0,> 100 µM (inactive)
same,GI50,M14,58.3 µM (inactive)
same,GI50,SK-MEL-5,41.1 µM (inactive)
same,GI50,SF-268,39.3 µM (inactive)
same,GI50,EKVX,98.9 µM (inactive)
same,GI50,HT-29,> 100 µM (inactive)
same,GI50,A549,78.9 µM (inactive)
same,GI50,DU-145,> 100 µM (inactive)
same,GI50,BT-549,> 100 µM (inactive)
same,GI50,UACC-62,33.1 µM (inactive)
same,GI50,MOLT-4,15.4 µM (inactive)
same,GI50,OVCAR-3,54.3 µM (inactive)
same,GI50,SW-620,60.1 µM (inactive)
same,GI50,SNB-19,> 100 µM (inactive)
same,GI50,RXF 393,40.8 µM (inactive)
same,GI50,CAKI-1,34.4 µM (inactive)
same,GI50,TK-10,42.1 µM (inactive)
same,GI50,Hs-578T,< 0.01 µM (active)
same,GI50,NCI-H522,39.3 µM (inactive)
same,GI50,NCI-H23,66.7 µM (inactive)
same,GI50,T47D,62.1 µM (inactive)
same,GI50,Malme-3M,27.9 µM (inactive)
same,GI50,OVCAR-5,44.2 µM (inactive)
same,GI50,NCI-H226,> 100 µM (inactive)
same,GI50,ACHN,49.1 µM (inactive)
same,GI50,SK-MEL-2,42.4 µM (inactive)
same,GI50,HOP-92,10.3 µM (inactive)
same,GI50,UACC-257,> 100 µM (inactive)
same,GI50,NCI-H460,61.7 µM (inactive)
same,GI50,NCI/ADR-RES,31.1 µM (inactive)
same,GI50,COLO 205,> 100 µM (inactive)
same,GI50,MDA-MB-435,48.1 µM (inactive)
same,GI50,MCF7,> 100 µM (inactive)
same,GI50,OVCAR-8,60.3 µM (inactive)
same,GI50,PC-3,28.5 µM (inactive)
same,GI50,HOP-62,72.9 µM (inactive)
same,GI50,SK-OV-3,> 100 µM (inactive)
same,GI50,OVCAR-4,> 100 µM (inactive)
same,GI50,IGROV-1,> 100 µM (inactive)
same,GI50,HL-60,32.5 µM (inactive)
same,GI50,SF-539,30.5 µM (inactive)
CC[C@]1(Cc2ccc(OC)c(OC)c2)C=[N+]([O-])O[C@H](OC2CCCC2(c2ccccc2)c2ccccc2)[C@@H]1OC(C)=O (some centres not stated),GI50,K562,2.98 µM (inactive)
same,GI50,HCT-116,2.08 µM (inactive)
same,GI50,SNB-75,2.82 µM (inactive)
same,GI50,UO-31,3.12 µM (inactive)
same,GI50,SF-295,4.92 µM (inactive)
same,GI50,SN12C,4.12 µM (inactive)
same,GI50,MDA-MB-231,11 µM (inactive)
same,GI50,KM12,2.84 µM (inactive)
same,GI50,HCT-15,3.37 µM
same,GI50,U-251,7.94 µM (inactive)
same,GI50,LOX IMVI,2 µM (inactive)
same,GI50,SK-MEL-28,1.81 µM (inactive)
same,GI50,786-0,1.6 µM (inactive)
same,GI50,M14,4.59 µM (inactive)
same,GI50,HCC 2998,2.74 µM (inactive)
same,GI50,SK-MEL-5,3.55 µM (inactive)
same,GI50,SR,2.79 µM (inactive)
same,GI50,SF-268,4.76 µM (inactive)
same,GI50,EKVX,5.89 µM (inactive)
same,GI50,HT-29,1.98 µM (inactive)
same,GI50,A549,3.54 µM (inactive)
same,GI50,DU-145,3.03 µM (inactive)
same,GI50,BT-549,8.47 µM (inactive)
same,GI50,UACC-62,2.68 µM (inactive)
same,GI50,MOLT-4,2.67 µM (inactive)
same,GI50,OVCAR-3,1.65 µM (inactive)
same,GI50,SW-620,3.44 µM (inactive)
same,GI50,SNB-19,5.89 µM (inactive)
same,GI50,RXF 393,1.52 µM (inactive)
same,GI50,CAKI-1,2.95 µM (inactive)
same,GI50,TK-10,3.02 µM (inactive)
same,GI50,Hs-578T,13.1 µM (inactive)
same,GI50,NCI-H522,2.83 µM (inactive)
same,GI50,NCI-H23,5.25 µM (inactive)
same,GI50,T47D,2.96 µM (inactive)
same,GI50,Malme-3M,2.03 µM (inactive)
same,GI50,CCRF-CEM,4.1 µM (inactive)
same,GI50,OVCAR-5,16.7 µM (inactive)
same,GI50,ACHN,2.4 µM (inactive)
same,GI50,SK-MEL-2,4.62 µM (inactive)
same,GI50,HOP-92,3.21 µM (inactive)
same,GI50,UACC-257,4.61 µM (inactive)
same,GI50,NCI-H460,5.4 µM (inactive)
same,GI50,NCI/ADR-RES,2.59 µM (inactive)
same,GI50,COLO 205,3.35 µM (inactive)
same,GI50,MDA-MB-435,2.41 µM (inactive)
same,GI50,MCF7,2.43 µM (inactive)
same,GI50,OVCAR-8,2.67 µM (inactive)
same,GI50,PC-3,4.66 µM (inactive)
same,GI50,HOP-62,12.4 µM (inactive)
same,GI50,SK-OV-3,14.5 µM (inactive)
same,GI50,OVCAR-4,4.84 µM (inactive)
same,GI50,IGROV-1,2.08 µM (inactive)
same,GI50,HL-60,3.36 µM (inactive)

# Source: ChEMBL document CHEMBL1201862, “PubChem BioAssay data set” (2004)
